Source: patent US8952024B2, “Herbicidal pyrimidone derivatives” (E I du Pont de Nemours and Company, priority 2009, dated 2015)

Legend:
Experiment in all cases: Test B pre-/postemergence plant response
Type in all cases: in vivo
[1] = test system: ragweed (common ragweed, Ambrosia elatior); conditions: Postemergence
Source text: (§1) Seeds of plant species selected from blackgrass (Alopecurus myosuroides), downy bromegrass (Bromus tectorum), green foxtail (Setaria viridis), Italian ryegrass (Lolium multiflorum), wheat (Triticum aestivum), wild oat (Avena fatua), deadnettle (henbit deadnettle, Lamium amplexicaule), galium (catchweed bedstraw, Galium aparine), bermudagrass (Cynodon dactylon), Surinam grass (Brachiaria decumbens), cocklebur (Xanthium strumarium), corn (Zea mays), large crabgrass (Digitaria sanguinalis), woolly cupgrass (Eriochloa villosa), giant foxtail (Setaria faberii), goosegrass (Eleusine indica), johnsongrass (Sorghum halepense), kochia (Kochia scoparia), lambsquarters (Chenopodium album), morningglory (Ipomoea coccinea), nightshade (eastern black nightshade, Solanum ptycanthum), yellow nutsedge (Cyperus esculentus), pigweed (Amaranthus retroflexus), ragweed (common ragweed, Ambrosia elatior), Russian thistle (Salsola kali), soybean (Glycine max), sunflower (common oilseed sunflower, Helianthus annuus) and velvetleaf (Abutilon theophrasti) were planted into a blend of loam soil and sand and treated preemergence with test compounds formulated in a non-phytotoxic solvent mixture which included a surfactant.
(§2) At the same time, plants selected from these crop and weed species and also winter barley (Hordeum vulgare), canarygrass (Phalaris minor), chickweed (Stellaria media) and windgrass (Apera spica-venti) were planted in pots containing Redi-Earth® planting medium (Scotts Company, 14111 Scottslawn Road, Marysville, Ohio 43041) comprising spaghnum peat moss, vermiculite, wetting agent and starter nutrients and treated with postemergence applications of some of the test chemicals formulated in the same manner. Plants ranged in height from 2 to 18 cm (1- to 4-leaf stage) for postemergence treatments.
(§3) Treated plants and controls were maintained in a greenhouse for 13 to 15 days, after which time all treated plants were visually evaluated and compared to controls. Plant response ratings, summarized in Table B, are based on a scale of 0 to 100 where 0 is no effect and 100 is complete control. A dash (-) response means no test result.

[2] = test system: blackgrass (Alopecurus myosuroides); conditions: for Plant response rating, Blackgrass: Postemergence; for Blackgrass plant response rating (0 to 100 scale): 62 g ai/ha, postemergence, 0 is no effect, 100 is complete control
Source text: as §1, §2, §3

[3] = test system: soybean (Glycine max); conditions: Postemergence
Source text: as §1, §2, §3

[4] = test system: velvetleaf (Abutilon theophrasti); conditions: Postemergence
Source text: as §1, §2, §3

[5] = test system: lambsquarters (Chenopodium album); conditions: Postemergence
Source text: as §1, §2, §3

[6] = test system: bermudagrass (Cynodon dactylon); conditions: for Plant response rating, Bermudagrass: Postemergence; for Bermudagrass plant response rating (0 to 100 scale): 62 g ai/ha, postemergence, 0 is no effect, 100 is complete control
Source text: as §1, §2, §3

[7] = test system: cocklebur (Xanthium strumarium); conditions: Postemergence
Source text: as §1, §2, §3

[8] = test system: downy bromegrass (Bromus tectorum); conditions: for Plant response rating, Bromegrass, Downy: Postemergence; for Bromegrass, Downy plant response rating (0 to 100 scale): 62 g ai/ha, postemergence, 0 is no effect, 100 is complete control
Source text: as §1, §2, §3

[9] = test system: yellow nutsedge (Cyperus esculentus); conditions: Postemergence
Source text: as §1, §2, §3

[10] = test system: wild oat (Avena fatua); conditions: Postemergence
Source text: as §1, §2, §3

[11] = test system: Italian ryegrass (Lolium multiflorum); conditions: Postemergence
Source text: as §1, §2, §3

[12] = test system: pigweed (Amaranthus retroflexus); conditions: Postemergence
Source text: as §1, §2, §3

[13] = test system: large crabgrass (Digitaria sanguinalis); conditions: Postemergence
Source text: as §1, §2, §3

[14] = test system: green foxtail (Setaria viridis); conditions: Postemergence
Source text: as §1, §2, §3

[15] = test system: kochia (Kochia scoparia); conditions: Postemergence
Source text: as §1, §2, §3

[16] = test system: corn (Zea mays); conditions: Postemergence
Source text: as §1, §2, §3

[17] = 31 g ai/ha, 0 to 100 scale (0 no effect, 100 complete control)
[18] = 125 g ai/ha, scale 0 to 100 (0 no effect, 100 complete control)
[19] = 250 g ai/ha, scale 0 to 100 (0 no effect, 100 complete control), 13 to 15 days

SMILES: O=C1CCCC(O)=C1C(=O)c1cnc(-c2ccccc2)n(C2CC[S+]([O-])CC2)c1=O (mixture of isomers) [Compound 169, 5-[(2-hydroxy-6-oxo-1-cyclohexen-1-yl)carbonyl]-2-phenyl-3-(trans/cis-tetrahydro-1-oxido-2H-thiopyran-4-yl)-4(3H)-pyrimidinone]
- Plant response rating, Ragweed ([1]; 16 g ai/ha, 0 to 100 scale): 98
- Plant response rating, Ragweed [1, 17]: 100
- Plant response rating, Ragweed [1, 18]: 100
- Plant response rating, Blackgrass ([2]; 16 g ai/ha, 0 to 100 scale): 0
- Blackgrass plant response rating (0 to 100 scale) ([2]; 13 to 15 days): 5
- Plant response rating, Blackgrass [2, 17]: 5
- Plant response rating, Blackgrass [2, 18]: 10
- Plant response rating, Soybean ([3]; 16 g ai/ha, 0 to 100 scale): 55
- Plant response rating, Soybean [3, 17]: 90
- Plant response rating, Soybean [3, 18]: 95
- Plant response rating, Velvetleaf ([4]; 16 g ai/ha, 0 to 100 scale): 75
- Plant response rating, Velvetleaf [4, 17]: 100
- Plant response rating, Velvetleaf [4, 18]: 100
- Plant response rating, Lambsquarters ([5]; 16 g ai/ha, 0 to 100 scale): 95
- Plant response rating, Lambsquarters [5, 17]: 100
- Plant response rating, Lambsquarters [5, 18]: 100
- Plant response rating, Bermudagrass ([6]; 16 g ai/ha, 0 to 100 scale): 70
- Bermudagrass plant response rating (0 to 100 scale) ([6]; 13 to 15 days): 75
- Plant response rating, Bermudagrass [6, 17]: 70
- Plant response rating, Bermudagrass [6, 18]: 100
- Plant response rating, Cocklebur ([7]; 16 g ai/ha, 0 to 100 scale): 100
- Plant response rating, Cocklebur [7, 17]: 100
- Plant response rating, Cocklebur [7, 18]: 100
- Plant response rating, Bromegrass, Downy ([8]; 16 g ai/ha, 0 to 100 scale): 0
- Bromegrass, Downy plant response rating (0 to 100 scale) ([8]; 13 to 15 days): 40
- Plant response rating, Bromegrass, Downy [8, 17]: 10
- Plant response rating, Bromegrass, Downy [8, 18]: 90
- Plant response rating, Nutsedge, Yellow ([9]; 16 g ai/ha, 0 to 100 scale): 0
- Plant response rating, Nutsedge, Yellow [9, 17]: 0
- Plant response rating, Nutsedge, Yellow [9, 18]: 55
- Plant response rating, Oat, Wild ([10]; 16 g ai/ha, 0 to 100 scale): 0
- Plant response rating, Oat, Wild [10, 17]: 0
- Plant response rating, Oat, Wild [10, 18]: 85
- Plant response rating, Ryegrass, Italian ([11]; 16 g ai/ha, 0 to 100 scale): 0
- Plant response rating, Ryegrass, Italian [11, 17]: 0
- Plant response rating, Ryegrass, Italian [11, 18]: 10
- Plant response rating, Pigweed ([12]; 16 g ai/ha, 0 to 100 scale): 90
- Plant response rating, Pigweed [12, 17]: 100
- Plant response rating, Pigweed [12, 18]: 100
- Plant response rating, Crabgrass, Large ([13]; 16 g ai/ha, 0 to 100 scale): 75
- Plant response rating, Crabgrass, Large [13, 17]: 85
- Plant response rating, Crabgrass, Large [13, 18]: 100
- Plant response rating, Foxtail, Green ([14]; 16 g ai/ha, 0 to 100 scale): 45
- Plant response rating, Foxtail, Green [14, 17]: 60
- Plant response rating, Foxtail, Green [14, 18]: 95
- Plant response rating, Kochia ([15]; 16 g ai/ha, 0 to 100 scale): 100
- Plant response rating, Kochia [15, 17]: 100
- Plant response rating, Kochia [15, 18]: 100
- Plant response rating, Corn ([16]; 16 g ai/ha, 0 to 100 scale): 20
- Plant response rating, Corn [16, 17]: 45
- Plant response rating, Corn [16, 18]: 55

SMILES: CCCn1c(-c2cc(Cl)cc(Cl)c2)ncc(C(=O)C2=C(O)CCCC2=O)c1=O [Compound 173]
- Plant response rating, Ragweed [1, 17]: 55
- Plant response rating, Ragweed [1, 18]: 90
- Plant response rating, Ragweed [1, 19]: 98
- Blackgrass plant response rating (0 to 100 scale) ([2]; 13 to 15 days): 10
- Plant response rating, Blackgrass [2, 17]: 5
- Plant response rating, Blackgrass [2, 18]: 30
- Plant response rating, Blackgrass [2, 19]: 50
- Plant response rating, Soybean [3, 17]: 60
- Plant response rating, Soybean [3, 18]: 95
- Plant response rating, Soybean [3, 19]: 100
- Plant response rating, Velvetleaf [4, 17]: 100
- Plant response rating, Velvetleaf [4, 18]: 100
- Plant response rating, Velvetleaf [4, 19]: 100
- Plant response rating, Lambsquarters [5, 17]: 98
- Plant response rating, Lambsquarters [5, 18]: 100
- Plant response rating, Lambsquarters [5, 19]: 100
- Bermudagrass plant response rating (0 to 100 scale) ([6]; 13 to 15 days): 98
- Plant response rating, Bermudagrass [6, 17]: 98
- Plant response rating, Bermudagrass [6, 18]: 100
- Plant response rating, Bermudagrass [6, 19]: 100
- Plant response rating, Cocklebur [7, 17]: 60
- Plant response rating, Cocklebur [7, 18]: 100
- Plant response rating, Cocklebur [7, 19]: 100
- Bromegrass, Downy plant response rating (0 to 100 scale) ([8]; 13 to 15 days): 25
- Plant response rating, Bromegrass, Downy [8, 17]: 5
- Plant response rating, Bromegrass, Downy [8, 18]: 40
- Plant response rating, Bromegrass, Downy [8, 19]: 70
- Plant response rating, Nutsedge, Yellow [9, 17]: 45
- Plant response rating, Nutsedge, Yellow [9, 18]: 60
- Plant response rating, Nutsedge, Yellow [9, 19]: 75
- Plant response rating, Oat, Wild [10, 17]: 50
- Plant response rating, Oat, Wild [10, 18]: 70
- Plant response rating, Oat, Wild [10, 19]: 85
- Plant response rating, Ryegrass, Italian [11, 17]: 0
- Plant response rating, Ryegrass, Italian [11, 18]: 30
- Plant response rating, Ryegrass, Italian [11, 19]: 30
- Plant response rating, Pigweed [12, 17]: 85
- Plant response rating, Pigweed [12, 18]: 100
- Plant response rating, Pigweed [12, 19]: 100
- Plant response rating, Crabgrass, Large [13, 17]: 70
- Plant response rating, Crabgrass, Large [13, 18]: 95
- Plant response rating, Crabgrass, Large [13, 19]: 100
- Plant response rating, Foxtail, Green [14, 17]: 55
- Plant response rating, Foxtail, Green [14, 18]: 90
- Plant response rating, Foxtail, Green [14, 19]: 90
- Plant response rating, Kochia [15, 17]: 65
- Plant response rating, Kochia [15, 18]: 98
- Plant response rating, Kochia [15, 19]: 100
- Plant response rating, Corn [16, 17]: 5
- Plant response rating, Corn [16, 18]: 60
- Plant response rating, Corn [16, 19]: 85

SMILES: O=C1CCCC(O)=C1C(=O)c1cnc(-c2ccsc2)n(C2CCOCC2)c1=O [Compound 186]
- Plant response rating, Ragweed [1, 17]: 85
- Plant response rating, Ragweed [1, 18]: 100
- Plant response rating, Ragweed [1, 19]: 100
- Blackgrass plant response rating (0 to 100 scale) ([2]; 13 to 15 days): 0
- Plant response rating, Blackgrass [2, 17]: 0
- Plant response rating, Blackgrass [2, 18]: 5
- Plant response rating, Blackgrass [2, 19]: 20
- Plant response rating, Soybean [3, 17]: 85
- Plant response rating, Soybean [3, 18]: 100
- Plant response rating, Soybean [3, 19]: 100
- Plant response rating, Velvetleaf [4, 17]: 70
- Plant response rating, Velvetleaf [4, 18]: 100
- Plant response rating, Velvetleaf [4, 19]: 100
- Plant response rating, Lambsquarters [5, 17]: 98
- Plant response rating, Lambsquarters [5, 18]: 100
- Plant response rating, Lambsquarters [5, 19]: 100
- Bermudagrass plant response rating (0 to 100 scale) ([6]; 13 to 15 days): 80
- Plant response rating, Bermudagrass [6, 17]: 80
- Plant response rating, Bermudagrass [6, 18]: 95
- Plant response rating, Bermudagrass [6, 19]: 98
- Plant response rating, Cocklebur [7, 17]: 90
- Plant response rating, Cocklebur [7, 18]: 100
- Plant response rating, Cocklebur [7, 19]: 100
- Bromegrass, Downy plant response rating (0 to 100 scale) ([8]; 13 to 15 days): 25
- Plant response rating, Bromegrass, Downy [8, 17]: 5
- Plant response rating, Bromegrass, Downy [8, 18]: 30
- Plant response rating, Bromegrass, Downy [8, 19]: 50
- Plant response rating, Nutsedge, Yellow [9, 17]: 65
- Plant response rating, Nutsedge, Yellow [9, 18]: 75
- Plant response rating, Nutsedge, Yellow [9, 19]: 80
- Plant response rating, Oat, Wild [10, 17]: 0
- Plant response rating, Oat, Wild [10, 18]: 20
- Plant response rating, Oat, Wild [10, 19]: 45
- Plant response rating, Ryegrass, Italian [11, 17]: 0
- Plant response rating, Ryegrass, Italian [11, 18]: 0
- Plant response rating, Ryegrass, Italian [11, 19]: 30
- Plant response rating, Pigweed [12, 17]: 85
- Plant response rating, Pigweed [12, 18]: 100
- Plant response rating, Pigweed [12, 19]: 100
- Plant response rating, Crabgrass, Large [13, 17]: 80
- Plant response rating, Crabgrass, Large [13, 18]: 85
- Plant response rating, Crabgrass, Large [13, 19]: 95
- Plant response rating, Foxtail, Green [14, 17]: 50
- Plant response rating, Foxtail, Green [14, 18]: 85
- Plant response rating, Foxtail, Green [14, 19]: 95
- Plant response rating, Kochia [15, 17]: 75
- Plant response rating, Kochia [15, 18]: 100
- Plant response rating, Kochia [15, 19]: 100
- Plant response rating, Corn [16, 17]: 10
- Plant response rating, Corn [16, 18]: 30
- Plant response rating, Corn [16, 19]: 65
